Assays:
[1] = test system: neurons of the ischemic region; assay: Detection by DDC of permanent ischemia by MCA cauterization; format: in vivo, mice; conditions: DDC i.v. 22 hours from the insult; adjacent slides
Method: A. Administration of DDC in-vivo: Injection of 200 μl of DDC intravenously. Following 1-2 hours, animal is sacrificed, and the desired organ is placed in a test tube or on a small plate, suitable for liquid nitrogen freezing. The plate is then covered with an aluminum foil, and transferred to liquid nitrogen. Following 5-30 minutes the specimen is being frozen to −80° C. and kept at −80° C. for at least 16 hr. B. Analysis of the Specimen: • a. Whole organ imaging Ex-vivo whole organ fluorescence imaging may be carried out on freshly excised specimen, that can be analyzed under a stereomicroscope (such as Leica MZ FL III, Leica Switzerland). DDC may be visualized using 360cx and >420cm nm filter set. Emitted fluorescence can be imaged using appropriate camera and software, such as a Leica DC 300F Distal camera and images can be processed and analyzed by Leica QWin Lite software. • b. Histological analysis, from the frozen organ or tissue, 4 μm cryosections are prepared on slides. Analysis of the tissue sections can be performed using a fluorescence microscope with a UV filter characterized by excitation at 360-370 nm (band pass) and emission at 420 nm (barrier filter) In case that staining of the examined tissue is desired, the following procedures can be applied:
A permanent ischemia by MCA cauterization was induced in Balb/c mice (Harlan laboratories). […]

[2] = test system: C26 colon carcinoma cells; assay: Time course of DDC binding to C26 colon carcinoma cells treated with BiCNU; format: cell-based; conditions: 0.5 mM BiCNU for 2 hr
Method: For microscopic analysis the concentration of cells should be within 1-2×10^7/ml. […] If fixation is needed, it should be performed after DDC staining. • 1. Adjusting the cells to 1-2×10^7/ml in buffer. • 2. Transferring 96 μl from the cell suspension to an eppendorf and staining the cells by adding 4 μl from the DDC solution. Incubating for 10-40 minutes at RT protected from light. • 3. A double labeling could be conducted with PI, if desired. In such a case, 1 μl is added from the PI solution. • 4, Placing the cell suspension on a glass slide. Covering the cells with a glass coverslip. Alternatively, for analyzing adherent cells, cells may grow directly on coverslip. Staining the cells by incubation with DDC (4 μl of DDC/96 μl buffer reaction) or 10-40 minutes and PI (1 μl). Covering the slide with a coverslip and visualizing the cells. If desired, at that point the cells can be washed and fixed in 1% formaldehyde before visualization. Mounting should be done in a solution of 50% glycerol/PBS (v/v). • 5. Observing the cells under fluorescent or confocal microscope equipped with the appropriate UV filter (excitation at 360-370 nm, band pass, and emission at 420 nm, barrier filter. Using a Triple filter (Hoechst/FITC/Texas Red) allows concomitant observation of both DDC and PI. Quantitative Assay for DDC Accumulation using Fluorescene Spectroscopy […]

platelets = assay: Selective binding of DDC to activated platelets, flow cytometry; format: cell-based; conditions: 10 μM DDC for 5 minutes
Method: The selective binding of DDC to activated platelets was determined using flow cytometric (FACS) analysis. Platelet-rich plasma was obtained from healthy volunteers. 10^9 of the fresh platelets were centrifuged (5 minutes, 380×g), washed and re-suspended in Tyrode's buffer (137 mM NaCl; 2.8 mM KCl; 1 mM MgCl2, 12 mM NaHCO3; 0.4 mM Na2HPO4; 5.5 mM D-glucose and 10 mM Hepes pH 7.4; 0.35% BSA). The purified platelets were kept on ice, and served as controls.
For activation, 200 μl of washed platelets were incubated with a mixture of 0.05 units/ml of thrombin and 5 μg/ml collagen for 5 min. at 37°, in the presence of 2 mM CaCl2 in a final volume of 1 ml. Following incubation, the platelets were centrifuged (2 min. at 10^4 rpm) and resuspended in 1 ml of Tyrode's buffer.
Activated and control non-treated platelets were incubated with 10 μM of DDC for 5 minutes at room temperature. […] Excitation was at 360 nm and emission was measured at 530 nm. […] While only a small fraction of the control platelets manifested binding of DDC (3.6% of the population), platelet activation caused 81% of the platelet population to acquire a marked DDC binding, reflected as a distinct shift to higher fluorescence intensity. As shown in tile FACS histogram in FIG. 21B, activation was associated with a major shift of the whole platelet population to higher fluorescence intensity. […]

C6-Glioma tumor = assay: Accumulation of DDC in apoptotic cells of glioma following irradiation; format: in vivo, mice; conditions: 20 h after radiation (6 gray)
[3] = test system: hepatocytes (liver sections); assay: Detection by DDC in vivo of liver-cell apoptosis induced by anti-Fas antibody; design: species or system mice
Method: Selective detection of apoptotic cells in vivo has numerous diagnostic and therapeutic clinical applications. […] Treatment of mice with anti-Fas monoclonal agonistic antibody induces apoptosis of hepatocytes, leading to animal death of within several hours. The study included intravenous administration of DDC to anti-Fas-Ab-injected mice, as well as to control, untreated animals. Fluorescence histopathological studies were then performed to evaluate the level of DDC binding.
Five-week-old male BALB/c mice were injected intravenously with 10 μg/animal of purified hamster anti-Fas nAb. Mice were then injected intravenously with 70 mg/Kg of DDC. Injections were performed 30 minutes after antibody treatment. Control animals were injected with DDC only, without antibody administration. All animals were sacrificed three hours after administration of the antibody, followed by organ removal. Liver was sectioned transversely across the mid-portion of each lobe, dipped immediately into liquid nitrogen, and then transferred to −80° C. for 24 hours. Organs were then transferred into OCT solution, and cryosections (5 μm) were prepared. These sections were taken for fluorescent microscopy. Parallel sections were stained with hematoxylin/eosin (H&E), for simultaneous evaluation of the characteristic apoptotic morphology of the cells manifesting DDC binding.

## CN(C)c1cccc2c(S(=O)(=O)NC(CSSCC(NS(=O)(=O)c3cccc4c(N(C)C)cccc34)C(=O)O)C(=O)O)cccc12 (centres unmarked) [DDC]
[1]
  correlation of DDC staining of single neurons with H&E staining: high correlation with H&E staining
[2]
  time to staining of apoptotic cells: ≤ 40 s
platelets; control platelets
  fraction of platelet population binding DDC: 3.6%
platelets; platelets activated by thrombin and collagen
  fraction of platelet population binding DDC: 81%
C6-Glioma tumor
  binding to viable tumor cells or normal brain tissue: not binding
  labeling of cells undergoing cell death within the glioma tumor: specifically and selectively labeled cells undergoing cell death
[3]; animals treated with anti-Fas Ab 10 μg/animal, 70 mg/Kg DDC i.v.
  binding of DDC in liver sections: marked, specific binding
[3]; control animals, 70 mg/Kg DDC i.v. only
  binding of DDC in liver sections: no significant binding
